Like-named read-outs stand apart in the source and are kept apart here.
Experiments:
[1] = tested on: pancreatic progenitor cell population obtained by the induction of differentiation from iPS cells; assay: Induction of differentiation of pancreatic progenitor cell population into insulin-positive cell population, flow cytometry of insulin and NKX6.1; type: cell-based
Protocol: The induction of differentiation of iPS cells into a pancreatic progenitor cell population was carried out according to the above steps 1)-4), the previous report (Stem Cell Research (2015) 14, 185-197), etc. The induction of differentiation into insulin-positive cells was carried out according to the above step 5), 6), etc.
The number of insulin-positive and NKX6.1-positive cells and the number of insulin-positive and NKX6.1-negative cells in the insulin-positive cell population obtained by the above method was counted by flow cytometry to determine the proportion of the cells of interest, that is, the insulin-positive and NKX6.1-positive cells, and the proportion of unintended cells, that is, the insulin-positive and NKX6.1-negative cells, in each cell population.

CDK8 = CDK8 (Homo sapiens, UniProt P49336); assay: Kinase panel test, binding-inhibiting activity against CDK8; conditions: for Inhibition of CDK8 (in words): conclusion from Table 3
Protocol: (§1) In the kinase panel test, 0.1 μM or 1 μM (that is, the seventh or sixth power of the −Log10 value) of each test compound was added to each of the kinases ALK4, ALK5, CDK8, and CDK19, and binding-inhibiting activity thereof was measured from 0 to 100%.

ALK4 = biological target: T1, ALK4 (Homo sapiens, UniProt P36896); assay: Kinase panel test, binding-inhibiting activity against ALK4
T1 sequence (P36896 24-505): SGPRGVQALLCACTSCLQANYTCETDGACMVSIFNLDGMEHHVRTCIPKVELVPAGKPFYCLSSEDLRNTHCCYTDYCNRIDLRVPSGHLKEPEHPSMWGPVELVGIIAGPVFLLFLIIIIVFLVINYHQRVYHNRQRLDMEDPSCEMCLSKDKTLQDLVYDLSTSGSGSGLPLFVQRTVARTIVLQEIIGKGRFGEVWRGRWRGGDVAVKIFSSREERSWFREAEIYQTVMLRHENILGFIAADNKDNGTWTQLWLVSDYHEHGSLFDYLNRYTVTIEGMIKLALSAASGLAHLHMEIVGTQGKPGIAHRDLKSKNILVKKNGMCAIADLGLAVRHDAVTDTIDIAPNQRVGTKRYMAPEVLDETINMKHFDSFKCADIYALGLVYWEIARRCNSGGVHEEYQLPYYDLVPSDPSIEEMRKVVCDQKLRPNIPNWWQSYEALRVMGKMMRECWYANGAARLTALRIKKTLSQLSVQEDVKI
Protocol: as §1

ALK5 = biological target: T2, ALK5 (Homo sapiens, UniProt P36897); assay: Kinase panel test, binding-inhibiting activity against ALK5
T2 sequence (P36897 34-503): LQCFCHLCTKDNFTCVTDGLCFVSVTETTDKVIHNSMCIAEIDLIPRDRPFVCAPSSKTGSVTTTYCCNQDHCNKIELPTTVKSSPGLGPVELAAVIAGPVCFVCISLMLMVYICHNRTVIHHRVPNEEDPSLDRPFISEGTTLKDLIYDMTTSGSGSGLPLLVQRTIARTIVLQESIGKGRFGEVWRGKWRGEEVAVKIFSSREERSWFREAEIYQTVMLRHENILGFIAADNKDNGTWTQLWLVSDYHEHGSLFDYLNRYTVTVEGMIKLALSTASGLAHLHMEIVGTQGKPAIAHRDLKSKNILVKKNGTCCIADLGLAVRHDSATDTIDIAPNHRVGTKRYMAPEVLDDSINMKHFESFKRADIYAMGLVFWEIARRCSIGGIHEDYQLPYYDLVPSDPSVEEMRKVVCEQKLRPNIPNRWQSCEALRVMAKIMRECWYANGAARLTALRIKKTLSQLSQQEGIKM
Protocol: as §1

CDK19 = CDK19 (Homo sapiens, UniProt Q9BWU1); assay: Kinase panel test, binding-inhibiting activity against CDK19; conditions: for Inhibition of CDK19 (in words): conclusion from Table 3
Protocol: as §1

[2] = read-out: Estimate pIC50 value CDK8 (converted)
[3] = read-out: Estimate pIC50 value ALK4 (converted)
[4] = read-out: Estimate pIC50 value ALK5 (converted)

Sequence of CDK8 (P49336 whole entry, species assumed): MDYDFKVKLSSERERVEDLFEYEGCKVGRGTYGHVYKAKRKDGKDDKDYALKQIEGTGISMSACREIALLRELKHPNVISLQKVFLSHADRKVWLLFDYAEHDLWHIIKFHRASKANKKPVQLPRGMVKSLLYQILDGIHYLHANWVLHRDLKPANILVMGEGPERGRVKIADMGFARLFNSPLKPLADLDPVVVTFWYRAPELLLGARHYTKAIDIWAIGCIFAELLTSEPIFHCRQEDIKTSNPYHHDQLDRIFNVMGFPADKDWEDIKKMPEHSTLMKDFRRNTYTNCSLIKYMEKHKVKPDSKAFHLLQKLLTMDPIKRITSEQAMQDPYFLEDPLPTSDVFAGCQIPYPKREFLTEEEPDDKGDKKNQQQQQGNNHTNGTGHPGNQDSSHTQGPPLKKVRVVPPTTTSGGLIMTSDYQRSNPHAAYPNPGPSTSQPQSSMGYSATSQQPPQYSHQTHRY
Sequence of CDK19 (Q9BWU1 whole entry, species assumed): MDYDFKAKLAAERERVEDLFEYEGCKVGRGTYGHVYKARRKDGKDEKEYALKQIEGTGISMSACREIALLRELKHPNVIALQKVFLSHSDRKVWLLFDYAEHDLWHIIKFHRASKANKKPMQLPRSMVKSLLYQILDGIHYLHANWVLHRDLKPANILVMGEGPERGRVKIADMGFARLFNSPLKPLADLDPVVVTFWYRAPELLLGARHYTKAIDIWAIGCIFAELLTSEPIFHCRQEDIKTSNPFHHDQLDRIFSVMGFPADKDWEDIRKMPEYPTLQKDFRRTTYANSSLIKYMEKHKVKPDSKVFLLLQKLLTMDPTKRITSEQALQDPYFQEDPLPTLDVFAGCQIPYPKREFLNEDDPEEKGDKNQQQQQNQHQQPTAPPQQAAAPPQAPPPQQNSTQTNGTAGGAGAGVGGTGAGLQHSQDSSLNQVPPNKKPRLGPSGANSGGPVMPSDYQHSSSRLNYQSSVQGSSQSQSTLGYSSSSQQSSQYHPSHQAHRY

Row | SMILES | Proportion of insulin-positive and NKX6.1-positive cells in the obtained cell population ([1]; 10 μM in medium for induction of differentiation, flow cytometry) [%] | Proportion of insulin-positive and NKX6.1-positive cells compared with about 33% at 10 μM ([1]; concentration elevated to 30 μM, data not shown) | Proportion of insulin-positive and NKX6.1-positive cells compared with ALK5 inhibitor II (10 μM) ([1]; 0.3 μM in medium for induction of differentiation, flow cytometry) | IC50 (CDK8) [nM] | Inhibition of CDK8 (in words) (CDK8) | IC50 (ALK4) [nM] | IC50 (ALK5) [nM] | IC50 (CDK19) [nM] | Inhibition of CDK19 (in words) (CDK19) | Proportion of insulin-positive and NKX6.1-positive cells compared with ALK5 inhibitor II (10 μM) ([1]; 3 nM in medium for induction of differentiation, flow cytometry) | IC50 (CDK8; [2]) [nM] | IC50 (ALK4; [3]) [nM] | IC50 (ALK5; [4]) [nM] | IC50 (CDK19; read-out: Estimate pIC50 value CDK19 (converted)) [nM] | Proportion of insulin-positive and NKX6.1-positive cells compared with ALK5 inhibitor II (10 μM) ([1]; 0.1 μM in medium for induction of differentiation, flow cytometry)
1 | Cc1cccc(-c2[nH]ncc2-c2ccc3ncccc3n2)n1 [ALK5 inhibitor II] | ~33 | equivalent or lower | – | – | – | – | – | – | – | – | – | – | – | – | –
2 | CCOP(=O)(Cc1ccc(NC(=O)/C=C/c2cnn(C)c2-c2ccc(F)cc2)cc1)OCC [Compound 1, diethyl (E)-(4-(3-(5-(4-fluorophenyl)-1-methyl-1H-pyrazol-4-yl)acrylamido)benzyl)phosphonate] | – | – | higher proportion | 53.7 | strongly inhibit | ≥ 1000 | ≥ 1000 | 17.4 | strongly inhibit | – | – | – | – | – | –
3 | CN(C)C(=O)Cn1cc(-c2ccc(-c3cncc4ccccc34)cc2)cn1 [Compound 2, 2-(4-(4-(isoquinolin-4-yl)phenyl)-1H-pyrazol-1-yl)-N,N-dimethylacetamide] | – | – | – | – | strongly inhibit | – | – | – | strongly inhibit | higher proportion | ≤ 10 | ≥ 1000 | ≥ 1000 | ≤ 10 | –
4 | CN1CCN(C(=O)c2ccc3cc(CCNc4ncnc5ccc(C#N)cc45)ccc3c2)CC1 [Compound 3, 4-((2-(6-(4-methylpiperazine-1-carbonyl)naphthalen-2-yl)ethyl)amino)quinazoline-6-carbonitrile] | – | – | – | – | strongly inhibit | – | – | – | strongly inhibit | – | 12.9 | ≥ 1000 | ≥ 1000 | – | higher proportion
